In patent publication US10239873B2, “7-azaindole or 4,7-diazaindole derivatives as IKKϵ epsilon and TBK1 inhibitor and pharmaceutical composition comprising same” (GREEN CROSS CORPORATION, priority 2015, dated 2019) one finds IC50 data, which are given here for twelve compounds.

The term pIC50 denotes −log10 of the IC50, conventionally taken in molar units.

Each structure is given as a SMILES string. pIC50: −log10 of the molar value.

The assay has as its target T1, TBK1 (Homo sapiens, UniProt Q9UHD2).
T1 construct: purchased Promega (Invitrogen is also named in the same bracket) V4158; PR8031B; V3991 (not assigned to the two kinases)
T1 sequence (Q9UHD2 1-729): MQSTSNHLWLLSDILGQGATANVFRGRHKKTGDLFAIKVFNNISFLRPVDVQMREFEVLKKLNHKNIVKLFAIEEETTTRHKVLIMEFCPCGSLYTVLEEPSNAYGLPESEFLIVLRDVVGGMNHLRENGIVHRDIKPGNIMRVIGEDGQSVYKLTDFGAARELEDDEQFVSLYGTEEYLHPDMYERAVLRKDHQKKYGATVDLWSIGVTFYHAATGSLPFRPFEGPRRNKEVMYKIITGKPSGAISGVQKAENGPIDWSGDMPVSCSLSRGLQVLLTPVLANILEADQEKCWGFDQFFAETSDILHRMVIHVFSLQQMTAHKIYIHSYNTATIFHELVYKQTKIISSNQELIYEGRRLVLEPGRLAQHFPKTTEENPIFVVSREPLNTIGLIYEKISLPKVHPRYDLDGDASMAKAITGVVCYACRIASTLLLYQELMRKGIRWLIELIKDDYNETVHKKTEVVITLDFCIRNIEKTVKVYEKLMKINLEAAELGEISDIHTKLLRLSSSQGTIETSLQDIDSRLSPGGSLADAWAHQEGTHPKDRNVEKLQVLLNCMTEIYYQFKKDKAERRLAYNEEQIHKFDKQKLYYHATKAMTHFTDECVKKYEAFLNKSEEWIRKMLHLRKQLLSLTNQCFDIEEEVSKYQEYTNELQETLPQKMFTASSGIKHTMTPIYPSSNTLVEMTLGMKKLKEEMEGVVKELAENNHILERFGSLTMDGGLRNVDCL
Put plainly: ADP-Glo Kinase Assay, inhibition activity on TBK1. The class given is biochemical. The gist of the method: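 In 40 mM Tris pH 7.5 with 20 mM MgCl2 and 0.1 mg/mL BSA, each enzyme (IKKε or TBK1 kinase system) was run according to the manufacturer's protocol. ADP formed was detected by ADP-Glo luminescence.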
For orientation: ADP-Glo turns the ADP formed in a reaction into a luminescent signal.
As to `CNS(=O)(=O)c1cccc(-c2cnc3[nH]cc(C4=CCN(C(=O)OC5CCCC5)CC4)c3c2)c1` [Example 177, Cyclopentyl 4-(5-(3-(N-methylsulfamoyl)phenyl)-1H-pyrrolo[2,3-b]pyridin-3-yl)-5,6-dihydropyridine-1(2H)-carboxylate], the pIC50 is 7.01.
`CNS(=O)(=O)c1ccc(-c2cnc3[nH]cc(C4=CCN(C(=O)OC5CCCC5)CC4)c3c2)cc1` [Example 178, Cyclopentyl 4-(5-(4-(N-methylsulfamoyl)phenyl)-1H-pyrrolo[2,3-b]pyridin-3-yl)-5,6-dihydropyridine-1(2H)-carboxylate]: the pIC50 is 6.77.
For the compound `O=C(OC1CCCC1)N1CC=C(c2c[nH]c3ncc(-c4cccc(S(=O)(=O)N5CCOCC5)c4)cc23)CC1` [Example 180, Cyclopentyl 4-(5-(3-(morpholinosulfonyl)phenyl)-1H-pyrrolo[2,3-b]pyridin-3-yl)-5,6-dihydropyridine-1(2H)-carboxylate], the pIC50 is 6.40.
Consider `O=C(OC1CCCC1)N1CC=C(c2c[nH]c3ncc(-c4ccc(S(=O)(=O)N5CCOCC5)cc4)cc23)CC1` [Example 181, Cyclopentyl 4-(5-(4-(morpholinosulfonyl)phenyl)-1H-pyrrolo[2,3-b]pyridin-3-yl)-5,6-dihydropyridine-1(2H)-carboxylate], for which the pIC50 is 6.43.
The compound `COc1ccc(-c2cnc3[nH]cc(C4=CCN(C(=O)OC5CCCC5)CC4)c3c2)cc1S(=O)(=O)N1CCOCC1` [Example 182, Cyclopentyl 4-(5-(4-methoxy-3-(morpholinosulfonyl)phenyl)-1H-pyrrolo[2,3-b]pyridin-3-yl)-5,6-dihydropyridine-1(2H)-carboxylate] gave a pIC50 of 6.74. Compared with the last compound, the pIC50 is 0.31 log units higher.
Regarding `O=C(OC1CCCC1)N1CC=C(c2c[nH]c3ncc(-c4ccc(C(=O)N5CCOCC5)cc4)cc23)CC1` [Example 183, Cyclopentyl 4-(5-(4-(morpholine-4-carbonyl)phenyl)-1H-pyrrolo[2,3-b]pyridin-3-yl)-5,6-dihydropyridine-1(2H)-carboxylate], the pIC50 is 7.41.
Regarding `O=C(OC1CCCC1)N1CC=C(c2c[nH]c3ncc(-c4cccc(C(=O)N5CCOCC5)c4)cc23)CC1` [Example 184, Cyclopentyl 4-(5-(3-(morpholine-4-carbonyl)phenyl)-1H-pyrrolo[2,3-b]pyridin-3-yl)-5,6-dihydropyridine-1(2H)-carboxylate], the pIC50 was 7.00.
As to `O=C(OC1CCCC1)N1CC=C(c2c[nH]c3ncc(-c4csc(CN5CCOCC5)c4)cc23)CC1` [Example 185, Cyclopentyl 4-(5-(5-(morpholinomethyl)thiophen-3-yl)-1H-pyrrolo[2,3-b]pyridin-3-yl)-5,6-dihydropyridine-1(2H)-carboxylate], the pIC50 was 7.09.
For `O=C(OC1CCCC1)N1CC=C(c2c[nH]c3ncc(-c4ccc(CN5CCOCC5)s4)cc23)CC1` [Example 186, Cyclopentyl 4-(5-(5-(morpholinomethyl)thiophen-2-yl)-1H-pyrrolo[2,3-b]pyridin-3-yl)-5,6-dihydropyridine-1(2H)-carboxylate], the pIC50 is 6.80.
The same measure for `COc1ccc(-c2cnc3[nH]cc(C4=CCCN(C(=O)OC(C)(C)C)CC4)c3c2)cc1OC` [Example 187, tert-Butyl 4-(5-(3,4-dimethoxyphenyl)-1H-pyrrolo[2,3-b]pyridin-3-yl)-2,3,6,7-tetrahydro-1H-azepine-1-carboxylate]: 5.48; for `COc1ccc(-c2cnc3[nH]cc(C4=CCN(C(=O)OC(C)(C)C)CCC4)c3c2)cc1OC` [Example 188, tert-Butyl 5-(5-(3,4-dimethoxyphenyl)-1H-pyrrolo[2,3-b]pyridin-3-yl)-2,3,4,7-tetrahydro-1H-azepine-1-carboxylate]: 5.31; for `O=C(c1cccs1)N1CC=C(c2c[nH]c3ncc(-c4ccc(F)c(F)c4)cc23)CC1` [Example 189, (4-(5-(3,4-Difluorophenyl)-1H-pyrrolo[2,3-b]pyridin-3-yl)-5,6-dihydropyridin-1(2H)-yl)(thiophen-2-yl)methanone]: less than 5.00.
